Reference: patent US20210024482A1, “Novel Group of STAT3 Pathway Inhibitors and Cancer Stem Cell Pathway Inhibitors” (Sumitomo Dainippon Pharma Oncology, Inc., priority 2007, published 2021)
“Also recorded” adds a separate entry of the source.

Assays:
CD34^+ BM Erythroid = assay: Colony formation assay, CD34+ bone marrow erythroid lineage; assay type: cell-based
Text: (§1) In a similar fashion to PMBCs, CD34^+ bone marrow hematopoietic stem cells were spared when treated with compound 401.

SW480 Hoechst SP cells = assay: MTT cell viability, SW480 Hoechst side population CSCs; assay type: cell-based; conditions: FIG. 8B
Method: To identify and isolate side population (SP) and non-SP fractions, SW480 cells were removed from the culture dish with trypsin and EDTA, pelleted by centrifugation, washed with phosphate-buffered saline (PBS), and resuspended at 37° C. in Dulbecco's modified Eagle's medium (DMEM) containing 2% FBS and 1 mM HEPES. The cells were then labeled with Hoechst 33342 (Invitrogen) at a concentration of 5 μg/mL. The labeled cells were incubated for 120 minutes at 37° C., either alone or with 50 μM verapamil (Sigma-Aldrich, St. Louis). After staining, the cells were suspended in Hanks' balanced saline solution (HBSS; Invitrogen) containing 2% FBS and 1 mM HEPES, passed a through 40 μm mesh filter, and maintained at 4° C. until flow cytometry analysis. The Hoechst dye was excited at 350 nm, and its fluorescence was measured at two wavelengths using a 450 DF10 (450/20 nm band-pass filter) and a 675LP (675 nm long-pass edge filter) optical filter. The gating on forward and side scatter was not stringent, and only debris was excluded,
For 3-(4,5 dimethylthiazol-2-yl)-2,5-diphenyltetrazolium (MTT) (Sigma-Aldrich, St. Louis, Mo.) analysis, cells were plated in 96 well plates at 10,000 cells per well. 24 hours after plating, compound was added to cells at indicated doses. 22 hours following compound addition, MTT was added to each well (0.5 mg/ml, final concentration) and plates were incubated for an additional 2 hours at 37° C. Medium was then aspirated and the formazan product was solubilized in 100 μl of isopropyl alcohol. The absorbance of each well was measured at 570 nm using a microplate reader.
The IC50 of compound 401 against the Hoechst side population was accessed in MTT assays and was compared to the IC50 against the non-side population.
In addition, we tested the activities of several other compounds against cancer stem cells. Briefly, freshly isolated CSCs (SW480 Hoechst SP cells or CD44^high FaDu cells) were exposed to a dose range (30-0.117 μM) of compound for 48 h before examining cell viability by MTT assay. IC50s were estimated by plotting the percentage of surviving cells. As shown in Table 4 and Table 5, compounds of present invention can target cancer stem cells.

CD34^+ BM Myeloid = assay: Colony formation assay, CD34+ bone marrow myeloid lineage; assay type: cell-based; conditions: normal cells, 6 hours incubation
Text: as §1

Stat3 = Stat3 DNA binding assay (EMSA) with HeLa nuclear extracts; assay type: biochemical; conditions: HeLa nuclear extract, FIG. 7A/7B
Method: Electrophoretic mobility shift assay (EMSA) was performed as described by the manufacturer (Li-Cor Biosciences, Lincoln, Nebr.). Briefly, nuclear extracts were made from HeLa cells using the NucBuster Protein Extraction Kit as described by the manufacturer (EMD Biosciences, San Diego, Calif.). 5 μg of nuclear extract was pre-incubated with the indicated dose of indicated compound for 30 minutes prior to a 15-minute incubation with the IR700-labeled consensus Stat3 oligonucleotide. Samples were then electrophoresed on a polyacrylamide gel and directly scanned using the Odyssey infrared imaging system (Li-Cor Biosciences). For the enzyme-linked immunosorbent assay (ELISA), 5 μg of nuclear extract was preincubated with indicated concentration of indicated compound for 30 minutes prior to the addition of biotinylated oligo (5′-Biotin-[…]-3′, SEQ ID NO. 1). Stat3-DNA complexes were then captured on streptavidin coated 96 well plates (Pierce, Rockford, Ill.). Bound complexes were then incubated with Stat3 polyclonal antibody (Santa Cruz Biotechnology, Santa Cruz, Calif.) followed by anti-rabbit HRP conjugated secondary antibody (GE Healthcare, Pittsburgh, Pa.). Bound antibody was then visualized by addition of TMB substrate (Pierce) and absorbance measured at 450 nm,
Nuclear extracts from HeLa cells, which contain constitutively activated Stat3 as detected by phoshporylation at the tyrosine 705 residue, were used to perform Stat3 EMSAs to monitor Stat3 DNA binding activity. Nuclear extracts were incubated with indicated compound prior to incubation with IR700-labeled Stat3 consensus oligonucleotide. Binding of Stat3 to the oligonucleotide was monitored by gel electrophoresis and detection using a LiCor Odyssey infrared scanner.

## CC(=O)c1cc2c(o1)C(=O)c1ccccc1C2=O [Compound 401, 2-acetylnaphtho[2,3-b]furan-4,9-dione]
CD34^+ BM Erythroid; CD34+ bone marrow cells vs DU145 and HT29, in vitro
  therapeutic window: greater than 50 fold
CD34^+ BM Erythroid; normal cells, 6 hours incubation, colony formation
  IC50: > 30 µM
SW480 Hoechst SP cells
  sensitivity of side population compared to non-side population: the side population is as sensitive as the non-side population
CD34^+ BM Myeloid
  IC50: > 30 µM
Stat3
  inhibition of Stat3 DNA binding activity: Dose dependent inhibition of Stat3 DNA binding; also recorded: can inhibit Stat3's DNA binding activity
